Test results from patent publication US20230348462A1, “IMIDAZO[4,5-C]QUINOLINE COMPOUNDS AND THEIR USE AS ATM KINASE INHIBITORS” (Deutsches Krebsforschungszentrum, priority 2020, published 2023).

Columns and labels:
[1] = system: kras^G12D; mycOE; p53^−/− murine pancreatic cancer cells (KMP53); test: KMP53 cell assay (XTT cell viability with Etoposide); assay type: cell-based; details: Mus musculus, 4 h pre-treatment, then 300 nM Etoposide, 46 h
From the text: (§1) A selection of compounds was screened in a cellular assay system in two different cancer cell lines. Therefore, the cells were challenged with a generally non-cytotoxic concentration of Etoposid to induce DNA double strand breaks and the activation of the ATM pathway. The cells were further treated with different concentrations of the final compounds and viability of the cells was quantified using a standard XTT cell viability protocol. The principle of this assay lies in the fact that only alive and thus metabolically active cells are able to catalyze the reduction of XTT ((2,3-bis-(2-methoxy-4-nitro-5-sulfophenyl)-2H-tetrazolium-5-carboxanilide) by NADH from mitochondria, into formazan. The formazan product can be then detected using an absorbance-based microplate reader. The absorbance intensity measured in each well correlates to cell viability.
(§2) In brief, kras^G12D; mycOE; p53^−/− murine pancreatic cancer cells (KMP53) and Panc-1 human pancreatic ductal carcinoma cells were seeded in 96-well plates and left to attach overnight. The following day, cells were treated with serial dilutions of compound or DMSO in triplicates. The cells were first pre-treated for 4 hours with inhibitor and then 300 nM of Etoposide was added to each well. Cells were then grown under normal conditions (37° C., 95% air, 5% CO2) for 46 h. Following the incubation period, XTT solution was added to the cells containing 1 mg/ml XTT and 25 μM phenazine methosulfate (PMS) diluted in full culture medium. Cells were incubated in normal conditions for two more hours. For the determination of cell viability, absorbance at 450 nm was measured for each well. Absorbance values were then normalized to DMSO control and expressed as percentages of viability. Using software GraphPad Prism, the values were fitted in a nonlinear response curve and the IC50 values were calculated.

human ATM = human ATM (Homo sapiens (Human), UniProt Q13315); test: Enzymatic ATM assay (RBC FRET enzyme assay); assay type: biochemical; details: substrate p53, 5-point dilution starting at 10 μM
Chain of human ATM (Q13315 whole entry): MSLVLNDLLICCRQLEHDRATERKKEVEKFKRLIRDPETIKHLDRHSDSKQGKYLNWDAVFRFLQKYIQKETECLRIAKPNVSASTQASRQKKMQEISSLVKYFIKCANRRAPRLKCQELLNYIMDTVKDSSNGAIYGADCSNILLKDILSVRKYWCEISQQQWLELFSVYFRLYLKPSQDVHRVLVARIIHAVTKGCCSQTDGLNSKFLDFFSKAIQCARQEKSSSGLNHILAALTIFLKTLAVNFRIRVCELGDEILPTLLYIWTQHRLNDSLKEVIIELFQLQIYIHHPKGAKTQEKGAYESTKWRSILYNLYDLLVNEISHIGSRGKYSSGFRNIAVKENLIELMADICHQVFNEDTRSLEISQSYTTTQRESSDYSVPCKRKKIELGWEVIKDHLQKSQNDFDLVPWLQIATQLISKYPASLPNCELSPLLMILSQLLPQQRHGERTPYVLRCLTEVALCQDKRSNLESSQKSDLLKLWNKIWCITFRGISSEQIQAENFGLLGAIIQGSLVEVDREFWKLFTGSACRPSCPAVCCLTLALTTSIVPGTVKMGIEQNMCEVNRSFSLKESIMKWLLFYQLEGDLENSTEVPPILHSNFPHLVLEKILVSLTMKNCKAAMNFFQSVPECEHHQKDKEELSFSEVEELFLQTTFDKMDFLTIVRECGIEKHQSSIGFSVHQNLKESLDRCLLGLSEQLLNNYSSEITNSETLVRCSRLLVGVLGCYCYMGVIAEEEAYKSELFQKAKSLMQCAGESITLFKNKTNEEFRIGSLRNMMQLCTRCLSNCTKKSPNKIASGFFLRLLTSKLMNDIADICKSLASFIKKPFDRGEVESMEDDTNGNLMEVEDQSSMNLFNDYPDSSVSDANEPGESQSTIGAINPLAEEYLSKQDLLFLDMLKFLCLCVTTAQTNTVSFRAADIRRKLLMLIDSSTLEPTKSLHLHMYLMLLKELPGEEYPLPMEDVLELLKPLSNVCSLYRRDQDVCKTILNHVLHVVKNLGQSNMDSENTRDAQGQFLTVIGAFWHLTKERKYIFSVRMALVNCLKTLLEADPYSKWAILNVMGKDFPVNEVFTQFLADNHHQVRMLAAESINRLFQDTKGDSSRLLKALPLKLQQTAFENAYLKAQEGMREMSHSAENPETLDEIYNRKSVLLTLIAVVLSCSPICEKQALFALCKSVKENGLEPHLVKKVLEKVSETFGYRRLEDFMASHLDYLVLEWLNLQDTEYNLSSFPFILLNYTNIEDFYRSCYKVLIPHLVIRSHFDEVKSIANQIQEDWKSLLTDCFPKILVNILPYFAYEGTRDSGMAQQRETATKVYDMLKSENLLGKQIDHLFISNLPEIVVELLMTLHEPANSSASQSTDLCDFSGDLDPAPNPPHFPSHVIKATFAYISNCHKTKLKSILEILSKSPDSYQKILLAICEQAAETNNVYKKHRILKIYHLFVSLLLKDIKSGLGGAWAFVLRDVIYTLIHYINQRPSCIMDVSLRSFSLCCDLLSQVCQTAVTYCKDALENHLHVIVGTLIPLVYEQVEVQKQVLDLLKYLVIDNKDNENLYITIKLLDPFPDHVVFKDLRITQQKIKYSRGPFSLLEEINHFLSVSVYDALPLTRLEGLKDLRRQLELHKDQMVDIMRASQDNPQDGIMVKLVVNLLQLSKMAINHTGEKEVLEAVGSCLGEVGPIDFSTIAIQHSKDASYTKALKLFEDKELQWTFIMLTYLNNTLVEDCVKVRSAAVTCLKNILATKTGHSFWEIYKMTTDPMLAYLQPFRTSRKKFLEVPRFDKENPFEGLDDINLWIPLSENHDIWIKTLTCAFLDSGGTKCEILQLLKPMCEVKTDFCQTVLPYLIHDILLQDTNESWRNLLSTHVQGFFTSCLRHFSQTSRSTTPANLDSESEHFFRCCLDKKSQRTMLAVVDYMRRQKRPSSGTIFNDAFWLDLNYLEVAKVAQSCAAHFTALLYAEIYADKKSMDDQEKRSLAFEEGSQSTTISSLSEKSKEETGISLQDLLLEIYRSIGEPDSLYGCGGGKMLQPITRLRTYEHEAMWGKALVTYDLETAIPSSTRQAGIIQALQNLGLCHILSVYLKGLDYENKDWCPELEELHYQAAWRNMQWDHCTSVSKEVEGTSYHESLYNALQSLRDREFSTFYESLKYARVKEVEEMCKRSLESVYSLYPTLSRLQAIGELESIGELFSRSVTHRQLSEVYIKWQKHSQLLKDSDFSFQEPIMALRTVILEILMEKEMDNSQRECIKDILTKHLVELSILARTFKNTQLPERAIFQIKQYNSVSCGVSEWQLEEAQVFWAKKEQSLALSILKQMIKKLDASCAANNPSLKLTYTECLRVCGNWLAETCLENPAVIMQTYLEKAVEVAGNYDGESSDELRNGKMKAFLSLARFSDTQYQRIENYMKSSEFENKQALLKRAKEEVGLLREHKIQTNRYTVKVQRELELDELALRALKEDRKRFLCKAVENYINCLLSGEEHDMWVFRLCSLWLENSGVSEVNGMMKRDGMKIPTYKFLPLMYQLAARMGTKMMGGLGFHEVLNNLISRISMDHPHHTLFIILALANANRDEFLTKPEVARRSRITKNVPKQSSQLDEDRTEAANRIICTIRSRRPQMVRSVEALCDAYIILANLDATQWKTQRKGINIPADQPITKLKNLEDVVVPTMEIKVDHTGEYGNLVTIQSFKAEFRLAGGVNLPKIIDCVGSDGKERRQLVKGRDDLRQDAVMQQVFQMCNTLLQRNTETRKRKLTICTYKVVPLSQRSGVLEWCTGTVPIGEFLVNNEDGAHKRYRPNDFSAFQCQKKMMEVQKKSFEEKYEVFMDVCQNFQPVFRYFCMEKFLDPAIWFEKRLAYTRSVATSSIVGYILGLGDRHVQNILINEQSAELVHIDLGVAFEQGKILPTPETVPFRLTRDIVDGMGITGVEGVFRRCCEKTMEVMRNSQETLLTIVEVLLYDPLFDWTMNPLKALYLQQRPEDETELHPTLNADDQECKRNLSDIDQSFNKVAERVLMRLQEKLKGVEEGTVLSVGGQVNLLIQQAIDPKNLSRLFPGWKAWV
Procedure: The inhibitory activity on the isolated ATM kinase was determined by a commercial supplier (Reaction Biology Corp., PA, US) using an activity based FRET assay. Compounds were therefore first pre-incubated with human ATM before substrate (p53) and ATP were added to initiate the phosphorylation reaction. After a given time, the kinase reaction was stopped and the amount of phosphorylated substrate was quantified using standard FRET detection methods. […] Detailed assay conditions and parameters can be requested from the commercial supplier.

Solubility in DMSO = assay type: physicochemical; details: organic solvent or mixture, free base
Procedure: In a screw-top reaction vial, 41 mg (25) (0.1 mmol) and 1 mg tBu3P Pd G3 (1.5 mol %) were suspended in 2.4 ml degassed dioxane under argon atmosphere. Subsequently were added 40 mg (27) (0.14 mmol) as solution in dioxane and 0.6 ml of an aqueous 0.5M K3PO4 solution (0.3 mmol) via syringe. The reaction vial was sealed and heated to 50° C. heating block temperature for about 2 hours. TLC indicated complete conversion at that point and the reaction was quenched by dilution with EtOAc and brine. The phases were separated and the aqueous phase was further extracted with EtOAc (3×15 ml) and subsequently with DCM (4×15 ml). The combined extracts were washed with brine, dried and evaporated. The residue was purified via flash chromatography (DCM/MeOH+2N NH3 2-10%) to obtain 36 mg (74%) of the title substance as white solid. […] Therefore, it was converted to the HCl salt by dissolution in DCM/MeOH, acidification with HCl in EtOH and subsequent concentration of the solution. […]

[2] = system: Panc-1 human pancreatic ductal carcinoma cells; test: Panc1 cell assay (XTT cell viability with Etoposide); assay type: cell-based; details: 4 h pre-treatment, then 300 nM Etoposide, 46 h
From the text: as §1, §2

CN(C)CCNC(=O)Nc1ccc(-c2ccc3ncc4c(c3c2)n(C2CCOCC2)c(=O)n4C)cn1 [Ex. 7, 1-(2-(Dimethylamino)ethyl)-3-(5-(3-methyl-2-oxo-1-(tetrahydro-2H-pyran-4-yl)-2,3-dihydro-H-imidazo[4,5-c]quinolin-8-yl)pyridin-2-yl)urea]
IC50 [1]: 2500 nM
IC50 (human ATM): < 1 nM
solubility (Solubility in DMSO): < 10 mM

COCCn1c(=O)n(C)c2cnc3ccc(-c4ccc(NC(=O)NCCN(C)C)cc4F)cc3c21 [Ex. 27, 1-(2-(Dimethylamino)ethyl)-3-(3-fluoro-4-(1-(2-methoxyethyl)-3-methyl-2-oxo-2,3-dihydro-1H-imidazo[4,5-c]quinolin-8-yl)phenyl)urea]
IC50 [1]: 4790 nM
IC50 [2]: 1 nM
IC50 (human ATM): < 1 nM
